These results are taken from patent US7511144B2, “Reverse hydroxamic acid derivatives” (Kaken Pharmaceutical Co., Ltd., priority 2001, dated 2009).

What all share (type): biochemical
For one assay, the target named is T1, Human MMP13 (Homo sapiens, UniProt P45452).
T1 construct: purchased Chemicon CC068
The assay is described as follows: MMP13 inhibition experiment. The following applies: concentration required for 50% inhibition of enzyme activity; read-out: IC50 value MMP-13.

A further assay concerns the target T2, TACE (Homo sapiens, UniProt P78536).
T2 construct: made in house; host or cells: mammalian cells or insect cells
The assay is described as follows: TACE inhibition experiment (in vitro).

In the next assay the target is T3, Human MMP3 (Homo sapiens, UniProt P08254).
T3 construct: purchased Calbiochem 444217
T3 sequence (P08254 100-272 limits assumed): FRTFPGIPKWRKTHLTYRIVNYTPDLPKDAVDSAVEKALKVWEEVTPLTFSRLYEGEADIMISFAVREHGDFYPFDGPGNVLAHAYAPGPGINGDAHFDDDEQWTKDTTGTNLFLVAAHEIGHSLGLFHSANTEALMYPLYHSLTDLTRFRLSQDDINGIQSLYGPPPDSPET
The assay is described as follows: MMP3 inhibition experiment. As to conditions: concentration required for 50% inhibition of enzyme activity; read-out: IC50 value MMP-3. In a few lines: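 Fluorescence-quenched substrate NFF-3 (MOCAc/Dnp peptide, 20 μM as prepared) cleaved by 5 ng human MMP3 over 5 hours at 37° C, with inhibition measured from substrate fluorescence.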

For another assay, the target named is T4, Human MMP9 (Homo sapiens, UniProt P14780).
T4 construct: purchased Calbiochem 444231
T4 sequence (P14780 107-707 limits assumed): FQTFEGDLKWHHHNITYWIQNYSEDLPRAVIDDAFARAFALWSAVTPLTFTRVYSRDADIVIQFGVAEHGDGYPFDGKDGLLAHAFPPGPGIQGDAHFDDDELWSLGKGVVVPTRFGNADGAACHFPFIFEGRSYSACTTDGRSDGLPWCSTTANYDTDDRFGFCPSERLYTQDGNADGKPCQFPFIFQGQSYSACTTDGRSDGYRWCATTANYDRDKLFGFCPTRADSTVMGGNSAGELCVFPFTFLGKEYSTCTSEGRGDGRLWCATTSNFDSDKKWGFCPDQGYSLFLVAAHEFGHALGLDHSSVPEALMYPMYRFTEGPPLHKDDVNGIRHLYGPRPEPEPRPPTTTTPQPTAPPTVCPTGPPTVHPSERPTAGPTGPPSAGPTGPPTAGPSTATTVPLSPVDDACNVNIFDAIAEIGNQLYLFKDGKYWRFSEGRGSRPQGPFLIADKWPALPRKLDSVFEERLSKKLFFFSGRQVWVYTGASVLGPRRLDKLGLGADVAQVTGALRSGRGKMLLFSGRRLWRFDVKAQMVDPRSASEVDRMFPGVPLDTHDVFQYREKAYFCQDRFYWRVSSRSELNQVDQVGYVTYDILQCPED
Kind of assay: MMP9 inhibition experiment. The following applies: read-out: IC50 value MMP-9.

The next assay addresses T5, Human MMP2 (Homo sapiens, UniProt P08253).
T5 construct: purchased Calbiochem 444213
T5 sequence (P08253 110-660): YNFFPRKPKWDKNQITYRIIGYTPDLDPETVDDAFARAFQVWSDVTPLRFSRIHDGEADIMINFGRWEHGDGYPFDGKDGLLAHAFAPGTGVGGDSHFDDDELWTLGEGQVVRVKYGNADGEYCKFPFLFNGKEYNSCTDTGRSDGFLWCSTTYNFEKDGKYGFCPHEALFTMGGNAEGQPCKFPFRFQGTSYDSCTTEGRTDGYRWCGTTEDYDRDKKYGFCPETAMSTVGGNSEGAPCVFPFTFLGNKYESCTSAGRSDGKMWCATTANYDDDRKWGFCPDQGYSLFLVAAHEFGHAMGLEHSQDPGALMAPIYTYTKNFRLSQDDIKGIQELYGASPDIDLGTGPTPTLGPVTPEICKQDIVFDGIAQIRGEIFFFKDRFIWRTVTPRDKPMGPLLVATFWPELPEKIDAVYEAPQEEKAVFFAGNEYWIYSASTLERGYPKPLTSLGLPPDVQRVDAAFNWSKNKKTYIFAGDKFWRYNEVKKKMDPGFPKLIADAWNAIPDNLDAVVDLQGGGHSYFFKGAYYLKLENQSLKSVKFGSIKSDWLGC
The assay is described as follows: MMP2 inhibition experiment. As to conditions: concentration required for 50% inhibition of enzyme activity; read-out: IC50 value MMP-2.

The next assay has as its target T6, Human MMP17 (Homo sapiens, UniProt Q9ULZ9).
T6 construct: purchased Calbiochem 475940
T6 sequence (Q9ULZ9 126-300 limits assumed): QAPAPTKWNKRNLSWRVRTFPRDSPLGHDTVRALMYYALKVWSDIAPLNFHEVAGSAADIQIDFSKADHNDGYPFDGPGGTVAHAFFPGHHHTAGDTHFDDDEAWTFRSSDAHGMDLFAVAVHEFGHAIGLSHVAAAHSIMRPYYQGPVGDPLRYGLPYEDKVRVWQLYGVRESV
The assay is described as follows: MMP17 inhibition test. As to conditions: concentration required for 50% inhibition of enzyme activity; read-out: IC50 value MMP-17.

The target of the next assay is T7, Human MMP1 (Homo sapiens, UniProt P03956).
T7 construct: purchased Calbiochem 444208
T7 sequence (P03956 100-469): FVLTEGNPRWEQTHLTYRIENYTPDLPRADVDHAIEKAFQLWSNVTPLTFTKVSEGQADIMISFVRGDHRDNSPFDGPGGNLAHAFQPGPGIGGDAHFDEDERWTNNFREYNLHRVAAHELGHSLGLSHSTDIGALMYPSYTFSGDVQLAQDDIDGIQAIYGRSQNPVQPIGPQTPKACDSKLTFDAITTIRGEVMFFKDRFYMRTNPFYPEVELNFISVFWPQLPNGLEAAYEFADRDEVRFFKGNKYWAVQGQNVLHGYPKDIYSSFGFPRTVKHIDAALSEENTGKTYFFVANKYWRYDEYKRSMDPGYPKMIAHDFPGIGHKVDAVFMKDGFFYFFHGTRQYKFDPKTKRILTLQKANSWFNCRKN
The assay is described as follows: MMP1 inhibition experiment. As to conditions: read-out: IC50 value MMP-1.

The next assay addresses T8, Human MMP14 (Homo sapiens, UniProt P50281).
T8 construct: purchased Biogenesis or Calbiochem 5980-1461 or 475935
The assay is described as follows: MMP14 inhibition experiment. The following applies: concentration required for 50% inhibition of enzyme activity; read-out: IC50 value MMP-14. A digest of the protocol:
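Fluorescence assay: substrate Dnp-Pro-Cha-Gly-Cys(Me)-His-Ala-Lys(Nma)-NH2 (20 μM before equal-volume mixing) incubated at 37° C for 5 hours with 4 ng human MMP14.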

The target of the next assay is T9, Human MMP8 (Homo sapiens, UniProt P22894).
T9 construct: purchased Calbiochem 444229
T9 sequence (P22894 101-467): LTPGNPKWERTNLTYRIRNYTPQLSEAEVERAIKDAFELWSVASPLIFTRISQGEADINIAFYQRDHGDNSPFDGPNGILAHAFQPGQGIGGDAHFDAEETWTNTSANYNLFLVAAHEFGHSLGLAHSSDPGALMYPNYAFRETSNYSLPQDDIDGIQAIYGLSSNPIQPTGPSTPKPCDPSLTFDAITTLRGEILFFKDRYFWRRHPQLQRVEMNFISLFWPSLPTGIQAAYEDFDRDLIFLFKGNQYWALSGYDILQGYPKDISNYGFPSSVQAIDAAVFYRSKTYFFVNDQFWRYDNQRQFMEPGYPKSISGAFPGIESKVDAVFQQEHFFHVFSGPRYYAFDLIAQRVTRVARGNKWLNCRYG
Kind of assay: MMP8 inhibition experiment. The following applies: concentration required for 50% inhibition of enzyme activity; read-out: IC50 value MMP-8. In a few lines:
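Human MMP8 activated with APMA for 1 h at 37° C, then incubated with fluorogenic peptide MOCAc-Pro-Leu-Gly-Leu-A2pr(Dnp)-Ala-Arg-NH2 (20 μM stock) for 5 hours at 37° C. Fluorescent substrate cleavage serves as read-out.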

Some results are limits rather than exact numbers.

T2 sequence (P78536 215-824): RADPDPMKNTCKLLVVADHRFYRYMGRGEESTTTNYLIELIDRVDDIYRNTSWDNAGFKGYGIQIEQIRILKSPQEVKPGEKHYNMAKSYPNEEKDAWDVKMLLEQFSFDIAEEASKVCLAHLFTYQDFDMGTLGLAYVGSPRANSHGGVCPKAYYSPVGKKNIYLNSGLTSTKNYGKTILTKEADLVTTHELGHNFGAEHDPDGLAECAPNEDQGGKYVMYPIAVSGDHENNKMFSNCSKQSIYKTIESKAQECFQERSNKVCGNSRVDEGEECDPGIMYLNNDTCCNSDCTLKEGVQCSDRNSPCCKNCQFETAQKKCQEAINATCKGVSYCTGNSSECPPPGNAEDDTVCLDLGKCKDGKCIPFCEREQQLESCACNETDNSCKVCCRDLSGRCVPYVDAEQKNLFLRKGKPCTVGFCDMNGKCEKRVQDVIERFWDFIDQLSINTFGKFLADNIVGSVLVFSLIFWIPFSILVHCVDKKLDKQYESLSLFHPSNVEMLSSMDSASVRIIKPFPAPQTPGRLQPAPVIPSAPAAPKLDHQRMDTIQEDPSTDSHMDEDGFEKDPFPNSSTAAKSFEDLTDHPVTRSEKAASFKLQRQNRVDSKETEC
Protocol for Human MMP13: Human MMP13 (Chemicon #CC068) in amount of 90 μL (200 ng) was activated by mixing with 10 μL of 10 mM APMA, followed by reaction for 1 hour at 37° C. This enzyme solution in amount of 0.6 μL was diluted to 90 μL with the assay buffer A, which was added to 90 μL of 20 μM fluorescent substrate (Dnp-Pro-Cha-Gly-Cys(Me)-His-Ala-Lys(Nma)-NH2) prepared in the assay buffer B, followed by reaction for 4 hours at 37° C.
Protocol for Human MMP2: This enzyme solution in amount of 10 μL was diluted to 90 μL with the assay buffer A, which was added to 90 μL of 20 μM fluorescent substrate (MOCAc((7-methoxycoumarin-4-yl)acetyl)-Pro-Leu-Gly-Leu-A2pr(Dnp)-Ala-Arg-NH2, Peptide Institute, Inc., #3163-v) prepared in the assay buffer B, followed by reaction for 5 hours at 37° C.
Protocol for Human MMP9: The methods of inhibition experiments carried out for various MMPs are described below.
This enzyme solution in amount of 1 μL was diluted to 90 μL with the assay buffer A, which was added to 90 μL of 20 μM fluorescent substrate (Dnp-Pro-Cha-Gly-Cys(Me)-His-Ala-Lys(Nma)-NH2) prepared in the assay buffer B, followed by reaction for 4 hours at 37° C.

As for `Cc1cc(COc2ccc(S(=O)(=O)CC(CC3CCN(C(=O)c4ccccc4)CC3)N(O)C=O)cc2)c2ccccc2n1` (stereo not drawn) [Example I-50], the IC50 (commonly the point on the concentration scale where inhibition reaches its midpoint) at Human MMP13 amounted to 3 µM; at TACE it was 0.013 µM; on Human MMP3, 0.2 µM; at Human MMP9 it was 31 µM; on Human MMP2 it was 1.4 µM; at Human MMP17 it was 0.2 µM. Further, the IC50 is 60 µM on Human MMP1, 30 µM on Human MMP14 and 5.8 µM at Human MMP8.
Turning to `O=CN(O)C(C=C1CCC2(CC1)OCCO2)CS(=O)(=O)c1ccc(OCc2ccc3ccccc3n2)cc1` (stereo not drawn) [Example I-83], the IC50 at Human MMP13 was 23 µM; against TACE it was 2.5 µM; at Human MMP3, 37 µM; at Human MMP9, 53 µM; on Human MMP2, 7 µM; at Human MMP17, 36 µM. Besides, the IC50 at Human MMP1 is > 100 µM; on Human MMP14 it was 55 µM; at Human MMP8, > 100 µM.
For the molecule `CCC(CC)C(=O)N1CCCC(C(CS(=O)(=O)c2ccc(OCc3cc(C)nc4ccccc34)cc2)N(O)C=O)C1` (stereo not drawn) [Example I-130], the half-inhibitory concentration (IC50) on Human MMP13 came out at 2.7 µM; at TACE, 0.014 µM; at Human MMP3, 0.24 µM; on Human MMP9, 46 µM; on Human MMP2, 2.6 µM; on Human MMP17, 0.11 µM. Further, the figures for the IC50 at Human MMP1, on Human MMP14 and at Human MMP8 were 50 µM, 19 µM and 7 µM, respectively.
On to `Cc1ccc(C(CS(=O)(=O)c2ccc(OCc3cc(C)nc4ccc(F)cc34)cc2)N(O)C=O)cn1` (stereo not drawn) [Example I-81], for which the half-inhibitory concentration (IC50) at Human MMP13 was 17 µM; at TACE it was 0.0051 µM; on Human MMP3, 2.2 µM; at Human MMP9, > 100 µM; at Human MMP2, 11 µM; at Human MMP17, 8 µM. In addition, the IC50 is > 100 µM at Human MMP1, 64 µM at Human MMP14 and 20 µM at Human MMP8.
Consider `CCC(CC)C(=O)N1CCC(=CC(CS(=O)(=O)c2ccc(OCc3cc(C)nc4ccccc34)cc2)N(O)C=O)CC1` (stereo not drawn) [Example I-42], for which the concentration for half-maximal inhibition (IC50) on Human MMP13 turned out to be 20 µM; at TACE, 0.0029 µM; at Human MMP3, 2.2 µM; on Human MMP9, 52 µM; on Human MMP2, 18 µM; on Human MMP17 it was 2.3 µM. In addition, the IC50 at Human MMP1 amounted to 70 µM; at Human MMP14, 38 µM; at Human MMP8, 61 µM.
On to `Cc1cc(COc2ccc(S(=O)(=O)CC(C3CCCN(C(=O)OC(C)(C)C)C3)N(O)C=O)cc2)c2ccccc2n1` (stereo not drawn) [Example I-72], for which the IC50 amounted to 1.4 µM on Human MMP13; 0.024 µM on TACE; 0.7 µM at Human MMP3; 64 µM on Human MMP9; 2 µM on Human MMP2; 0.28 µM on Human MMP17. Also, the IC50 at Human MMP1 turned out to be 90 µM; on Human MMP14, 48 µM; on Human MMP8 it was 10 µM.
Turning to `CC(=O)N1CCC(CC(CS(=O)(=O)c2ccc(OCc3cc(C)nc4ccccc34)cc2)N(O)C=O)CC1` (stereo not drawn) [Example I-69], the half-inhibitory concentration (IC50) at Human MMP13 is 13 µM; at TACE it was 0.0053 µM; on Human MMP3, 0.63 µM; at Human MMP9, > 100 µM; on Human MMP2, 9 µM; at Human MMP17, 0.45 µM. Besides, the IC50 on Human MMP1 was > 100 µM; at Human MMP14 it was > 100 µM; at Human MMP8 it was 9.8 µM.
In the case of `Cc1ccc(CCC(CS(=O)(=O)c2ccc(OCc3cc(C)nc4ccccc34)cc2)N(O)C=O)cc1` (stereo not drawn) [Example I-36], the half-inhibitory concentration (IC50) came out at 20 µM at Human MMP13; 0.17 µM at TACE; 9.7 µM at Human MMP3; 43 µM on Human MMP9; 6 µM on Human MMP2; 20 µM on Human MMP17. The results for the IC50 on Human MMP1, on Human MMP14 and at Human MMP8 were 70 µM, 37 µM and 68 µM, respectively.
Regarding `Cc1ccc2nc(C)cc(COc3ccc(S(=O)(=O)CC(C=C4CCOCC4)N(O)C=O)cc3)c2c1` (stereo not drawn) [Example I-74, N-{2-[4-(2.6-dimethylquinolin-4-ylmethoxy)benzenesulfonyl]-1-(tetrahydropyran-4-ylidenemethyl)ethyl}-N-hydroxyformamide], the IC50 is 20 µM on Human MMP13; 0.005 µM at TACE; 6 µM at Human MMP3; 50 µM at Human MMP9; 41 µM at Human MMP2; 10 µM on Human MMP17. The results for the IC50 on Human MMP1, at Human MMP14 and at Human MMP8 were 70 µM, 60 µM and 65 µM, respectively.
On to `COCOC1CCC(C)(C(CS(=O)(=O)c2ccc(OCc3cc(C)nc4ccccc34)cc2)N(O)C=O)CC1` (stereo not drawn) [Example I-128], for which the IC50 on Human MMP13 was 22 µM; against TACE, 0.032 µM; at Human MMP3, 1.3 µM; on Human MMP9, > 100 µM; on Human MMP2 it was 43 µM; at Human MMP17 it was 0.54 µM. Also, the IC50 at Human MMP1 was > 100 µM; on Human MMP14, 50 µM; on Human MMP8 it was 25 µM.
As for `CCC(CC)C(=O)N1CCC(C(CS(=O)(=O)c2ccc(OCc3cc(C)nc4ccccc34)cc2)N(O)C=O)CC1` (stereo not drawn) [Example I-132], the half-inhibitory concentration (IC50) is 2.2 µM on Human MMP13; 0.023 µM on TACE; 0.21 µM on Human MMP3; 40 µM at Human MMP9; 2.2 µM on Human MMP2; 0.085 µM on Human MMP17. Besides, the IC50 at Human MMP1 amounted to 53 µM; on Human MMP14, 16 µM; on Human MMP8 it was 8 µM.
As to `COc1ccc(C(=O)N2CCN(CC(CS(=O)(=O)c3ccc(OCc4cc(C)nc5ccccc45)cc3)N(O)C=O)CC2)cc1` (stereo not drawn) [Example I-54], the concentration for half-maximal inhibition (IC50) at Human MMP13 was found to be 23 µM; on TACE, 0.008 µM; on Human MMP3 it was 1.2 µM; on Human MMP9, 31 µM; at Human MMP2 it was 12 µM; at Human MMP17, 0.85 µM. Besides, the values for the IC50 on Human MMP1, at Human MMP14 and at Human MMP8 were 70 µM, 43 µM and 42 µM, respectively.
In the case of `CCC(CC)C(=O)N1CCC(=CC(CS(=O)(=O)c2ccc(OCc3cc(C)nc4ccccc34)cc2)N(O)C=O)C(C)C1` (stereo not drawn) [Example I-63], the 50% inhibitory concentration (IC50) was 32 µM on Human MMP13; 0.002 µM against TACE; 2.4 µM at Human MMP3; 75 µM on Human MMP9; 30 µM on Human MMP2; 2.2 µM at Human MMP17. Moreover, the IC50 at Human MMP1 stood at 64 µM; at Human MMP14, 65 µM; on Human MMP8, 60 µM.
On to `CCN1CCC(=CC(CS(=O)(=O)c2ccc(OCc3cc(C)nc4ccccc34)cc2)N(O)C=O)CC1` (stereo not drawn) [Example I-30], for which the IC50 at Human MMP13 is > 100 µM; against TACE it was 0.012 µM; at Human MMP3, 24 µM; at Human MMP9, > 100 µM; on Human MMP2, 83 µM; at Human MMP17, 8 µM. Besides, the IC50 on Human MMP1, at Human MMP14 and on Human MMP8 was > 100 µM in each case.
